The subject of data set [1] is Mcf-7 human breast adenocarcinoma cell line. Put plainly: cell proliferation (CellTiterGlo), single agents and combinations, Mcf-7. The class given is cell-based. The procedure:
(§1) Materials and methods. […] Drugs were added to the experimental culture, and incubations were carried out at 37° C. for 72 hours in the dark. […] Drug solutions were prepared immediately before use. At the end of treatment, cell proliferation was determined by an intracellular adenosine triphosphate monitoring system (CellTiterGlo-Promega) using an Envision (PerkinElmer) reader. Inhibitory activity was evaluated comparing treated versus control data using the Assay Explorer (MDL) program. The dose inhibiting 50% of cell growth was calculated using sigmoidal interpolation curve.
For orientation: In ATP-based viability assays light output follows the ATP content of the culture.

The test system of data set [2] is A2780 human ovarian carcinoma cell line. Put plainly: cell proliferation (CellTiterGlo), single agents and combinations, A2780. It is filed as cell-based. Particulars: single agent, 72 hours. On the procedure: (§2) Materials and methods. Exponentially growing human breast cancer (Mcf-7), human ovarian cancer (A-2780), human multiple myeloma (L-363), human colorectal cancer (HCT-116) and human melanoma (A-375) cell lines were seeded and incubated at 37° C. in a humidified 5% CO2 atmosphere. Drugs were added to the experimental culture, and incubations were carried out at 37° C. for 72 hours in the dark. Scalar doses of the compound of formula (I) and antineoplastic agents were added to the medium starting from 24 hours after seeding. Drug solutions were prepared immediately before use. At the end of treatment, cell proliferation was determined by an intracellular adenosine triphosphate monitoring system (CellTiterGlo-Promega) using an Envision (PerkinElmer) reader. Inhibitory activity was evaluated comparing treated versus control data using the Assay Explorer (MDL) program. The dose inhibiting 50% of cell growth was calculated using sigmoidal interpolation curve. Combination indices (C.I.) were calculated using a proprietary computer program for multiple drug effect analysis based on the equation of Chou-Talalay (Adv Enzyme Regul 1984;22:27-55) for mutually nonexclusive drugs, where a C.I. of <1 indicates a more than additive effect: C.I.: >3 strong antagonism; 1.3-3 antagonism; 1.2-0.8 additivity; 0.8-0.3 synergism; <0.3 strong synergism.

Data set [3] relates to HCT116 human colon carcinoma cell line. Put plainly: cell proliferation (CellTiterGlo), single agents and combinations, HCT116. The class given is cell-based. On the procedure: as §1
For data set [4], the system named is A375 human melanoma cell line. Kind of data set: cell proliferation (CellTiterGlo), single agents and combinations, A375. The class given is cell-based. Particulars: A-375, 72 h. The procedure: as §1
Data set [5] has as its system MX-1 human breast carcinoma. Put plainly: tumor growth delay, MX-1 xenograft, combination with bevacizumab. The class given is in vivo. Particulars: MX-1 in CD-1 Nu/Nu female mice, time to reach 1 g. On the procedure: (§3) Animals were examined regularly for the appearance of tumors. The treatment started when tumors were palpable. Compound of formula (I) was administered by oral route in a volume of 10 ml/kg at the daily dose of 20 mg/kg on days 2, 4, 6, 8, 10 and 12. Bevacizumab was administered by intravenous route at the dose of 20 mg/kg on days 1, 5, 9 and 13. When combined, compound of formula (I) was administered on days 2, 4, 6, 8, 10 and 12 and bevacizumab on days 1, 5, 9 and 13. […] Tumor growth was assessed by caliper.

Data set [6] is described as follows: toxicity on the basis of body weight reduction, MX-1 study with bevacizumab. It is filed as in vivo. The procedure:
as §3

Data set [7] concerns L-363 human Multiple Myeloma cell line. Kind of data set: cell proliferation (CellTiterGlo), single agents and combinations, L-363. The class given is cell-based. On the procedure:
as §2

In data set [8] the test system is HCT-116 human colon cancer tumors. Put plainly: tumor growth delay, HCT-116 xenograft, combination with irinotecan. It is filed as in vivo. Particulars: HCT-116 in Balb Nu/Nu male mice, time to reach 1 g. On the procedure:
(§4) Balb, Nu/Nu male mice, from Harlan (Italy), were maintained in agreement with the European Communities Council Directive no. 86/609/EEC, in cages with paper filter cover, food and bedding sterilized and acidified water. Fragments of HCT-116 human colon cancer tumors were implanted subcutaneously. The treatment started when tumors were palpable. […] Irinotecan was administered by intravenous route at the dose of 45 mg/kg on days 1, 5, 9. […] Tumor growth was assessed by caliper.

The subject of data set [9] is MX-1 human breast carcinoma. Put plainly: tumor growth delay, MX-1 xenograft, combination with docetaxel. The class given is in vivo. Particulars: MX-1 in CD1 Nu/Nu female mice, time to reach 1 g. The procedure:
(§5) CD1 Nu/Nu female mice were obtained from Charles River, Italy, The animals were maintained in cages using steam autoclaved (sterile) bedding, sterilized diet and water were offered ad libitum. MX-1 human breast carcinoma (from American Type Culture Collection) was maintained by subcutaneous (SC) transplantation in athymic mice. Viable MX-1 tumor fragments (weighting 20-30 mg) were obtained aseptically from stock tumors and transplanted subcutaneously by trocar implantation into the left flank of athymic nude mice. Animals were examined regularly for the appearance of tumors.
(§6) Docetaxel was administered by intravenous route at the dose of 5 mg/kg on days 1, 8, 15. […] Tumor growth and body weight were measured every 3 days, Tumor growth was assessed by caliper. The two diameters were recorded and the tumor weight was calculated according to the following formula: length (mm)×width^2/2. The effect of the antitumor treatment was evaluated as the delay in the onset of an exponential growth of the tumor (see for references Anticancer drugs 7:437-60, 1996). This delay (T-C value) was defined as the difference of time (in days) required for the treatment group (T) and the control group (C) tumors to reach a predetermined size (1 g). Toxicity was evaluated on the basis of body weight reduction.

The conditions of data set [10]: female, CD1 Nu/Nu, mouse, in vivo. On the procedure:
as §5, §6

Data set [11] is described as follows: toxicity on the basis of body weight reduction, HCT-116 study with irinotecan. It is filed as in vivo. On the procedure:
as §4

[12] abbreviates: 20 mg/kg oral on days 2, 4, 6, 8, 10, 12.

Like-named read-outs stand apart in the source and are kept apart here.

This is an account of results in patent publication US9119877B2, “Therapeutic combination comprising a Cdc7 inhibitor and an anti-neoplastic agent” (NERVIANO MEDICAL SCIENCES S.R.L., priority 2010, dated 2015).

For the compound `CC(=O)O[C@H]1C(=O)[C@@]2(C)[C@H]([C@H](OC(=O)c3ccccc3)[C@]3(O)C[C@H](OC(=O)[C@H](O)[C@@H](NC(=O)c4ccccc4)c4ccccc4)C(C)=C1C3(C)C)[C@]1(OC(C)=O)CO[C@@H]1C[C@@H]2O` [paclitaxel], the half-inhibitory concentration (IC50) (in general, the point on the concentration scale where inhibition reaches its midpoint) in data set [1] (Homo sapiens, MCF7, Mcf-7, single agent, 72 hours, Table 6, read-out: IC50 (μM) paclitaxel) was found to be 0.008 µM.
Turning to `N.N.[Cl][Pt][Cl]` [cisplatin], the 50% inhibitory concentration (IC50) in data set [2] (Table 3, read-out: IC50 (μM) cisplatin) worked out at 3 µM; in data set [1] (Mcf-7, single agent, 72 hours, Table 2, read-out: IC50 (μM) cisplatin), 10.2 µM.
As for `CCc1c2c(nc3ccc(O)cc13)-c1cc3c(c(=O)n1C2)COC(=O)[C@]3(O)CC` [SN38, SN-38], in [1] (Mcf-7, single agent, 72 hours, Table 4, read-out: IC50 (μM) SN38), the half-maximal inhibitory concentration (IC50) worked out at 0.024 µM.
As to `COc1cc([C@@H]2c3cc4c(cc3[C@@H](O[C@@H]3O[C@@H]5CO[C@@H](C)O[C@H]5[C@H](O)[C@H]3O)[C@H]3COC(=O)[C@H]23)OCO4)cc(OC)c1O` [etoposide], the IC50 in data set [1] (Homo sapiens, MCF7, Mcf-7, single agent, 72 hours, Table 5, read-out: IC50 (μM) etoposide) was 12.7 µM.
For the compound `CC(C)C[C@H](NC(=O)[C@H](Cc1ccccc1)NC(=O)c1cnccn1)B(O)O` [bortezomib], the IC50 turned out to be 0.011 µM in data set [1] (Homo sapiens, MCF7, Mcf-7, single agent, 72 hours, Table 8, read-out: IC50 (μM) bortezomib) and 0.009 µM in data set [3] (HCT-116, HCT116, single agent, 72 hours, Table 9, read-out: IC50 (μM) bortezomib).
For `CN(C)/N=N/c1[nH]cnc1C(N)=O` [dacarbazine], the IC50 in data set [4] (A375, single agent, Table 11 (sequential experiment), read-out: IC50 (μM) dacarbazine) was found to be 37 µM; in data set [4] (A375, single agent, Table 12 (simultaneous experiment), read-out: IC50 (μM) dacarbazine), 83 µM.
For bevacizumab, the “T-C” value in data set [5] (20 mg/kg intravenous on days 1, 5, 9, 13) is 13 days. In addition, the Toxicity in data set [6] (MX-1 study, 20 mg/kg intravenous on days 1, 5, 9, 13, body weight reduction) is given as 0/7.
Consider `CC1(C)CCC(c2ccc(Cl)cc2)=C(CN2CCN(c3ccc(C(=O)NS(=O)(=O)c4ccc(N[C@H](CCN5CCOCC5)CSc5ccccc5)c(S(=O)(=O)C(F)(F)F)c4)cc3)CC2)C1` [ABT-263, Navitoclax], for which, in data set [7] (L-363, single agent, 72 hours, Table 10, read-out: IC50 (μM) ABT-263), the IC50 is 7.3 µM.
As to `Nc1ccn([C@@H]2O[C@H](CO)[C@@H](O)C2(F)F)c(=O)n1` [Gemcitabine, gemcitabine], the IC50 in [1] (Homo sapiens, MCF7, Mcf-7, single agent, 72 hours, Table 1, read-out: IC50 (μM) Gemcitabine) was found to be 0.79 µM.
For the compound `C#Cc1cccc(Nc2ncnc3cc(OCCOC)c(OCCOC)cc23)c1` [erlotinib], the IC50 in data set [1] (Homo sapiens, MCF7, Mcf-7, single agent, 72 hours, Table 7, read-out: IC50 (μM) erlotinib) came to 74.8 µM.
With `NC(=O)c1cc(-c2ccnc(N)n2)[nH]c1-c1ccc(Cl)cc1Cl` [Compound of formula (I), 5-(2-Amino-pyrimidin-4-yl)-2-(2,4-dichloro-phenyl)-1H-pyrrole-3-carboxylic acid amide], the “T-C” value in data set [8] (setting [12]) is 4 days; in [9] (20 mg/kg oral on days 2, 4, 6, 9, 11, 13), 10 days; in [5] (setting [12]), 13 days. In addition, the Toxicity in [10] (po, 20 mg/kg) is reported as 0/7; in data set [11] (male, Balb Nu/Nu, mouse, in vivo, po, 20 mg/kg) it was 0/7; in data set [6] (female, CD-1 Nu/Nu, mouse, in vivo, po, 20 mg/kg), 0/7. Besides, the IC50 in data set [7] (L-363, 72 h, read-out: IC50 (μM) Compound of formula (I)) amounted to 0.38 µM; in data set [2] (Homo sapiens, Table 3 (cisplatin experiment), read-out: IC50 (μM) Compound of formula (I)) it was 0.52 µM; in data set [4] (read-out: IC50 (μM) Compound of formula (I), A375, single agent, Table 11 (dacarbazine, sequential experiment)), 1.21 µM; in [4] (read-out: IC50 (μM) Compound of formula (I), A375, single agent, Table 12 (dacarbazine, simultaneous experiment)), 0.86 µM; in data set [1] (Homo sapiens, MCF7, 72 h, read-out: IC50 (μM) Compound of formula (I), Mcf-7, single agent, Table 1 (gemcitabine experiment)), 1.1 µM; in data set [1] (Homo sapiens, MCF7, 72 h, read-out: IC50 (μM) Compound of formula (I), Mcf-7, single agent, Table 2 (cisplatin experiment)), 1.7 µM. Besides, the IC50 in [1] (Homo sapiens, MCF7, 72 h, read-out: IC50 (μM) Compound of formula (I), Mcf-7, single agent, Table 4 (SN-38 experiment)) was found to be 0.77 µM; in data set [1] (Homo sapiens, MCF7, 72 h, read-out: IC50 (μM) Compound of formula (I), Mcf-7, single agent, Table 5 (etoposide experiment)), 1.11 µM; in data set [1] (Homo sapiens, MCF7, 72 h, read-out: IC50 (μM) Compound of formula (I), Mcf-7, single agent, Table 6 (paclitaxel experiment)) it was 0.67 µM; in [1] (Homo sapiens, MCF7, 72 h, read-out: IC50 (μM) Compound of formula (I), Mcf-7, single agent, Table 7 (erlotinib experiment)), 1.87 µM; in data set [1] (Homo sapiens, MCF7, 72 h, read-out: IC50 (μM) Compound of formula (I), Mcf-7, single agent, Table 8 (bortezomib experiment)) it was 0.767 µM; in data set [3] (HCT-116, 72 h, read-out: IC50 (μM) Compound of formula (I)), 0.8 µM.
As to `CC(=O)O[C@@]12CO[C@@H]1C[C@H](O)[C@@]1(C)C(=O)[C@H](O)C3=C(C)[C@@H](OC(=O)[C@H](O)[C@@H](NC(=O)OC(C)(C)C)c4ccccc4)C[C@@](O)([C@@H](OC(=O)c4ccccc4)[C@H]21)C3(C)C` [docetaxel], the “T-C” value in [9] (5 mg/kg intravenous on days 1, 8, 15) came to 9 days. Also, the Toxicity in data set [10] (iv, 5 mg/kg) is given as 0/7.
For `CCc1c2c(nc3ccc(OC(=O)N4CCC(N5CCCCC5)CC4)cc13)-c1cc3c(c(=O)n1C2)COC(=O)[C@]3(O)CC` [irinotecan], the “T-C” value in [8] (45 mg/kg intravenous on days 1, 5, 9) worked out at 18 days. Also, the Toxicity in data set [11] (HCT-116 study, 45 mg/kg intravenous on days 1, 5, 9, body weight reduction) is 0/7.
